{
  "source": "a melting point compilation (Tetko et al.; mined from patent text by program, amines drawn as free bases though some values may be those of a salt)",
  "data": [
    {"units": {"melting point": "°C"}, "values": [
      {"smiles": "NCC1Cc2cc(Cl)cc(-c3cc(Cl)ccc3Cl)c2O1", "note": "(stereo unspecified)", "melting point": "160 to 162"},
      {"smiles": "Cc1cc(C)c2ncc(N(Cc3cc(C(C)(C)C)c(O)c(C(C)(C)C)c3)C(=O)Nc3ccc(F)cc3F)c(-c3ccccc3Cl)c2c1", "melting point": "124 to 126"},
      {"smiles": "Cc1cc(=O)n2cccc(OCc3ccc(Cl)cc3Cl)c2n1", "melting point": "180 to 182"},
      {"smiles": "Cc1cc(CBr)c(CBr)cc1C", "melting point": "116 to 120"},
      {"smiles": "CC(=O)Nc1cccc(-c2csc3nc(C45CC6CC(CC(C6)C4)C5)cn23)c1", "melting point": "98 to 100"},
      {"smiles": "CC(C)c1ccc(/C=C/c2cc(/C=C/c3ccc4cc[nH]c4c3)n[nH]2)cc1", "melting point": "208 to 212"},
      {"smiles": "NC(=O)[C@@H]1[C@H](Nc2ccnc3[nH]c(-c4ccc(CN5CCOCC5)cc4)nc23)[C@H]2C=C[C@@H]1C2", "melting point": "240 to 244"},
      {"smiles": "CCCN1N=C2C(=Cc3ccccc3)COCC2C1c1ccccc1", "note": "(stereo unspecified)", "melting point": "114 to 115"},
      {"smiles": "COc1ccc(N2C(=O)N(c3cccc(C(N)=O)c3)c3nc(Nc4ccccc4)ncc3C2C)c(F)c1", "note": "(stereo unspecified)", "melting point": "282 to 286"},
      {"smiles": "CC1(c2ccccc2NC(c2c(Cl)cccc2Cl)C2CC2)OCCO1", "note": "(stereo unspecified)", "melting point": 151},
      {"smiles": "O=P(Oc1ccccc1)(Oc1ccccc1)C1(N2CCOCC2)CCCCC1", "melting point": "103 to 106"},
      {"smiles": "CCCSc1c2c(=O)n(C)c(=O)n(CC(C)C)c2nn1Cc1cccc2ccccc12", "melting point": 105},
      {"smiles": "CCN1CCC(O)(c2ccc(F)c(Cl)c2)C1", "note": "(stereo unspecified)", "melting point": "157 to 158"},
      {"smiles": "COc1cc2c(cc1Cl)C(=O)Cc1ccccc1S2", "melting point": "171 to 173"},
      {"smiles": "C=C(C)COc1cc2c(c(C)c1C)N(C=O)CC2", "melting point": "81 to 83"},
      {"smiles": "CCCCOCCOc1ccc(-c2ccc(N3CCCC3)c(C(C)=CC(=O)O)c2)cc1", "melting point": 128},
      {"smiles": "O=C(O)c1cc2ccccc2n1S(=O)(=O)c1cccc(Cl)c1", "melting point": "216 to 217"},
      {"smiles": "COC(=O)Cc1ccc(O)c(NC(=O)c2c(C)c(OC)c(C)c(C)c2OC)c1", "melting point": "98 to 100"},
      {"smiles": "CCCCOc1c(CN2C(=O)c3ccccc3C2=O)n(CCNC(=O)OC)c(=O)c2cc(Cl)c(Cl)cc12", "melting point": "241 to 243"},
      {"smiles": "CCn1cc(C(=O)O)c(=O)c2cc(F)c(N3CCC(CN)C3)nc21", "note": "(stereo unspecified)", "melting point": "217 to 218"},
      {"smiles": "Fc1cccc(CN2CCN=C2S)c1", "melting point": "186 to 188"},
      {"smiles": "NC(=O)C1CCCc2ccc(-c3ccccc3)nc21", "note": "(stereo unspecified)", "melting point": 145},
      {"smiles": "CSc1ccc(CC(=O)NC(NC(Cc2ccccc2C)=NC#N)C(C)(C)C)cc1", "note": "(stereo unspecified)", "melting point": "201 to 202"},
      {"smiles": "Cc1cc(C)cc(Sc2cc(=O)[nH]c(C)c2CO)c1", "melting point": "268 to 270"},
      {"smiles": "COc1ccc(C(O)(Cc2ccncc2)c2cccs2)cc1OC1CCCC1", "note": "(stereo unspecified)", "melting point": "57 to 67"},
      {"smiles": "COc1cc(-c2cccs2)cc(OC)c1/C=C/C(=O)c1ccc(C(=O)O)cc1", "melting point": "256 to 258"},
      {"smiles": "Nc1ccc(C2=NC(O)C(=O)Nc3ccc(Cl)cc32)cc1", "note": "(stereo unspecified)", "melting point": "> 350"},
      {"smiles": "CC(C)(C)c1ccc(N2C[C@@H](COc3ccc(C(=O)O)cc3)CC2=O)cc1", "melting point": "247 to 248"},
      {"smiles": "CSc1ccc(C=CC(N)=O)cc1", "melting point": 193},
      {"smiles": "O=C1NCCN1Cc1cccc(F)c1", "melting point": "103 to 105"},
      {"smiles": "CCOC(=O)C1=C(C(F)(F)F)Nc2n[nH]cc2C1c1ccc(Cl)cc1", "note": "(stereo unspecified)", "melting point": "176 to 178"},
      {"smiles": "Cc1ccc(CC2CNC(=O)O2)cc1", "note": "(stereo unspecified)", "melting point": "144 to 146"},
      {"smiles": "C=CCN1CCc2cc(OC)c(O)cc2C1Cc1ccc(OC)c(OC)c1", "note": "(single isomer, unassigned; (+))", "melting point": "108 to 112"},
      {"smiles": "Oc1ccc(CNc2n[nH]c3ncnc(Nc4cccc(Cl)c4)c23)cc1Cl", "melting point": 220},
      {"smiles": "CCOC(=O)C(NC(=O)CC(=O)C=Cc1ccccc1[N+](=O)[O-])C(C)C", "note": "(stereo unspecified)", "melting point": "106 to 107"},
      {"smiles": "CC(c1ccc(F)cc1)N1CCN(c2cc(Oc3cccc4ccncc34)ncn2)CC1", "note": "(stereo unspecified)", "melting point": 114},
      {"smiles": "CC(=O)NNC(=N)C(Cl)(Cl)Cl", "melting point": "130 to 132"},
      {"smiles": "Oc1c(-c2cccnc2)cccc1-c1cccnc1", "melting point": 211},
      {"smiles": "CS(=O)(=O)c1ccc(-c2nc3n(c2-c2ccncc2)CCC3)cc1", "melting point": "222 to 224"},
      {"smiles": "CC(C)N(C=Nc1ncc(I)c(Cl)n1)C(C)C", "melting point": "97 to 100"},
      {"smiles": "CCNC(=O)c1c(Cl)cc(C=O)cc1[Si](C)(C)C", "melting point": "95 to 97"},
      {"smiles": "O=C(c1ccc(F)cc1)C1CCN(CCCN2c3cccc4cccc(c34)S2(=O)=O)CC1", "melting point": 132},
      {"smiles": "C[C@H](Nc1nc(C#N)nc(Cl)c1-c1c(F)cc(F)cc1F)C(F)(F)F", "melting point": "134 to 136"},
      {"smiles": "CC1CC(=O)c2cc([N+](=O)[O-])c(Br)cc2O1", "note": "(stereo unspecified)", "melting point": "125 to 128"},
      {"smiles": "O=C1NCCc2c(OCC(O)CN3CCCCC3)cccc21", "note": "(stereo unspecified)", "melting point": "162 to 164"},
      {"smiles": "CCOC(=O)CN1C[C@@H](C(N)=O)N(CC(=O)OCC)C[C@@H]1C(N)=O", "melting point": "> 260"},
      {"smiles": "CS(=O)(=O)c1ccc(-c2[nH]c(Br)c(Cl)c2-c2ccc(F)cc2)cc1", "melting point": "206 to 209"},
      {"smiles": "CCOCc1nc2c(N)nc(C)c(C)c2n1CC1(O)CCC1", "melting point": "190 to 191"},
      {"smiles": "N#CC(C#N)=CNc1ccc(C(N)=O)cn1", "melting point": "215 to 218"},
      {"smiles": "CC(C)(C(=O)c1ccccc1)n1cncn1", "melting point": "134 to 135"},
      {"smiles": "N#Cc1nc(Cl)sc1Cl", "melting point": "56.5 to 57"}
    ]}
  ]
}
